Test results reported in US12668589B2, “N-formamidopyrazoline derivative as P2X3 receptor antagonist and use thereof” (HANGZHOU WESTAN PHARMACEUTICAL TECHNOLOGY CO., LTD, priority 2020, dated 2026).

Experiments:
human PAR-1 = molecular target: T1, human PAR-1 (Homo sapiens, UniProt P25116); test: Inhibitory activity against PAR-1, calcium ion flux fluorescence method (FLIPR); assay type: cell-based; conditions: HEK293/Ga15 cells expressing human PAR-1, TFLLR-NH2 10 μM, starting concentration 30 μM
T1 construct: host or cells: HEK293/Ga15 recombinant cell line
T1 sequence (P25116 22-425): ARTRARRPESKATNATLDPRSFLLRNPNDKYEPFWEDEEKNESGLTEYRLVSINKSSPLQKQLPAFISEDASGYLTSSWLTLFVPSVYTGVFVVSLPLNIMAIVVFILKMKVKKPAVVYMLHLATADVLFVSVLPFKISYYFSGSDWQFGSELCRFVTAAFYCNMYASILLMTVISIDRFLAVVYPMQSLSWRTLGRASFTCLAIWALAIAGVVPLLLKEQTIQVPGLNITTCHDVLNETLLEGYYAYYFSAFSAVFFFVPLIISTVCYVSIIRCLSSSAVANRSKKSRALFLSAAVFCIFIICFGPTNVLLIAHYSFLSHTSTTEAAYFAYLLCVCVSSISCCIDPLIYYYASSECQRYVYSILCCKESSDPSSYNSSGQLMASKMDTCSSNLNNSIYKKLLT
Protocol: The inhibitory activity of the title compounds against human PAR-1 was determined by a calcium ion flux fluorescence method (an FLIPR method). The method thereof was reported in the literature of Zhong et al. [Zhong et al. J Biomol Struct Dyn, 2017, 35(13):2853].
An HEK293/Ga15 recombinant cell line (HD Biosciences, Shanghai, China) stably expressing human PAR-1 was cultured in a DMEM (Thermo Fisher Scientific, Shanghai) culture solution (containing 10% calf serum, 800 μg/mL G418). Incubator conditions were 37° C. and an air humidity with 5% CO2.
On the first day, 20 μL per well of PAR-1 cells at a concentration of 4E+5 cells/mL were seeded in a 384-well analysis plate (Corning 3712). […] On the second day, a culture solution in each well was poured off. Then, 20 μL of 1×loading dye (2 μM Fluo-8 AM in 1×HBSS with 20 mM HEPES, 1 mM Probenecid, 0.025% Pluronic F-127 assay buffer) was added in each well. The cell analysis plate was cultured for 1 hour at a room temperature.
The compounds were dissolved into 100% DMSO to prepare a 10 mM stock solution, which was stored at −20° C. On the day of use, the compound stock solution was thawed at a room temperature. Each compound was subjected to 1:3 serial dilution at 11 concentration points with a DMEM culture solution with a starting concentration of 30 μM. Each compound was subjected to double dilution for testing. A positive control compound was diluted in the same way with SCH79797 with a starting concentration of 30 μM.
The cell analysis plate was placed in a FLIPR instrument (Molecular Device) and 10 μL of compounds (3× of a final concentration) in a compound plate was added to corresponding wells of the cell analysis plate. After 10 minutes, 10 μL of TFLLR-NH2 (TFA) (a final concentration of 10 μM) was added to each well to stimulate generation of intracellular calcium flux signals. Ca^++-dependent fluorescence signals were continuously monitored at excitation wavelengths of 470/495 nm and emission wavelengths of 515/575 nm to analyze the inhibitory activity of the compounds.
Data were collected and analyzed by using an FLIPR program. The inhibitory (or agonistic) activity of the compounds at each concentration was assessed by fluorescence peaks. IC50 values of the compounds were calculated by using EXCEL and PRISM programs.

taste of SD rats = test: Rat taste test (quinine water / tap water drinking); assay type: in vivo; conditions: 10 mg/kg intraperitoneal injection; for Water drinking amount, Tap water: free drinking 15 minutes, amounts measured to the nearest 0.1 mL; for Water drinking amount, Sum: tap plus quinine water; for Water drinking amount, Sum / Water drinking amount, Quinine: 15 minutes, measured to the nearest 0.1 mL; for Water drinking amount, Quinine: water with 0.3 mM quinine hydrochloride
Protocol: Experimental purpose: to observe an effect of title compounds on taste of SD rats.
• 1.1) Animals and grouping: 40 male SD rats, with about 300 grams per rat. […] A bottle of normal drinking water and a bottle of drinking water containing 0.3 mM quinine hydrochloride were placed in each cage at the same time, and left and right positions where the two bottles of water were placed in all animal feeding cages were the same. After the animals were allowed to freely drink water for 15 minutes, drinking amounts of the two bottles of water were measured respectively to the nearest 0.1 mL. • 1.5) Data statistics: drinking amounts of quinine bitter water and tap water and a total water drinking amount thereof as well as a percentage of quinine water in the total water drinking amount were counted respectively. Water drinking amounts of the bitter water of animals in each group were compared. Whether differences between groups were significant was compared by analysis of variance. 2) Experimental Results

gpP2X3 = molecular target: T2, gpP2X3 (Cavia porcellus, UniProt H0VWY5); test: Inhibitory activity against P2X3 in guinea pigs (electrophysiological method); assay type: cell-based; conditions: guinea pig P2X3, electrophysiological method
T2 sequence (H0VWY5 1-391): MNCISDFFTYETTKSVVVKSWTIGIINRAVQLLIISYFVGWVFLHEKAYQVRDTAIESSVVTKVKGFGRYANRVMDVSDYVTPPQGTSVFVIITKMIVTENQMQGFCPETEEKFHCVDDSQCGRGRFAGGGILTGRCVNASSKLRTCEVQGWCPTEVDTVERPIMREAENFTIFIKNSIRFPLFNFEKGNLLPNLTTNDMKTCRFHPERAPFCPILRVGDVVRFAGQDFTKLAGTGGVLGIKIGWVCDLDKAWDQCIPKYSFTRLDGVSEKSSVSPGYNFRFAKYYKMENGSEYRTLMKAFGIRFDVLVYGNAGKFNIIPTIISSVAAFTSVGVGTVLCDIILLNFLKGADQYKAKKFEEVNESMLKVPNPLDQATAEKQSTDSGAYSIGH

SMILES | IC50 (human PAR-1) | Water drinking amount, Tap water (taste of SD rats) | Water drinking amount, Sum (taste of SD rats) | Water drinking amount, Quinine (taste of SD rats) | IC50 (gpP2X3)
Cc1ccc(C2=NN(C(=O)N[C@H](C)c3ccc(C(F)(F)F)nc3)C[C@@H]2N2CCOC2=O)cc1 [Compound 22] | > 30000 nM | 12.26 | 14.13 | 1.87 | 297 nM
CCOC(=O)N(C)[C@H]1CN(C(=O)N[C@H](C)c2cnc(C(F)(F)F)nc2)N=C1c1ccc(C)cc1 [Compound 4, (S)-4-(N-methyl-N-ethoxycarbonylamino)-3-(4-methylphenyl)-N-((R)-1-(2-(trifluoromethyl)pyrimidin-5-yl)ethyl)-4,5-dihydro-1H-pyrazol-1-carboxamide] | > 30000 nM | 11.84 | 13.87 | 2.03 | 421 nM
